Reference: patent publication US6169181A, “Compounds useful to treat retroviral infections” (Pharmacia & Upjohn Company, priority 1998, dated 2001)
Where “and” joins values, the source holds several entries; their conditions need not be identical. Equal values may be shown once. Read-outs that look alike come from different tables or passages of the source.

Tests used:
[1] = target: T1, HIV-1 protease (Human immunodeficiency virus type 1 group M subtype B, UniProt P04585); test: biochemical; details: read-out: HIV Protease FITC Assay Ki
Method in brief: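 Biotinylated, FITC-labelled peptide substrate cleaved in 0.1 M sodium acetate pH 5.5, 1.0 M NaCl, 0.05% NP-40, room temperature. Filtered labelled product read by fluorescence; nonlinear least-squares fit.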

[2] = target: T1, HIV-1 protease; test: biochemical; details: read-out: Protease % Inhib
Method in brief: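 Percent inhibition came from fluorescence of FITC-tagged cleavage product, separated by filtration from uncleaved substrate captured on streptavidin-coated beads. The enzyme (10 μl of 0.1 μM) and compound acted on a biotin/FITC dual-labelled peptide for one hour at room temperature in the dark. The reaction ran in 0.1 M sodium acetate, pH 5.5, with 1.0 M NaCl and 0.05% NP-40.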

SMILES	Ki ([1]; Table I)	inhibition at 0.123 µM ([2]; Table I, Dose 0.123 μM) [%]	inhibition at 0.37 µM ([2]; Table I, Dose 0.370 μM) [%]	inhibition at 1.1 µM ([2]; Table I, Dose 1.100 μM) [%]	inhibition at 3.3 µM ([2]; Table I, Dose 3.300 μM) [%]	inhibition at 10 µM ([2]; Table I, Dose 10.000 μM) [%]	inhibition at 30 µM ([2]; Table I, Dose 30.000 μM) [%]	Ki [1] [nM]	inhibition at 0.123 µM [2] [%]	inhibition at 0.37 µM [2] [%]	inhibition at 1.1 µM [2] [%]	inhibition at 3.3 µM [2] [%]	inhibition at 10 µM [2] [%]	inhibition at 30 µM [2] [%]	inhibition at 0.87 µM ([2]; Table I, Dose 0.870 μM) [%]
O=C(O)c1ccc(S(=O)(=O)Cc2cccc(C(c3c(O)c4c(oc3=O)CCCCCC4)C3CC3)c2)cc1 (centres unmarked) [Example 14, 3-[cyclopropyl[3-[(4-carboxyphenylsulfonyl)methyl]phenyl]methyl]-5,6,7,8,9,10-hexahydro-4-hydroxy-2H-cycloocta[b]pyran-2-one]	6.88 nM	65.7	88	96.8	96.6	102	106								
Cn1ccnc1S(=O)(=O)Cc1cccc(C(c2c(O)c3c(oc2=O)CCCCCC3)C2CC2)c1 (centres unmarked) [Example 15, 3-[cyclopropyl[3-[(2-(1-methylimidazoyl)sulfonyl)methyl]phenyl]methyl]-5,6,7,8,9,10-hexahydro-4-hydroxy-2H-cycloocta[b]pyran-2-one]	2.8 nM	77.6	88.5	92.4	94	95.8	99.2								
CCCC1(CCc2ccccc2)CC(O)=C(C(CC)c2cccc(NS(=O)(=O)c3ccc(C#N)cc3)c2)C(=O)O1 (centres unmarked) [Example 40, 4-Cyano-N-[3-[1-(4-hydroxy-2-oxo-6-phenethyl-6-propyl-5,6-dihydro-2H-pyran-3-yl)-propyl]-phenyl]-benzenesulfonamide]	10.8 nM	59.6	102	98.7	105	88.7	72.7								
CCCC1(CCc2ccccc2)CC(O)=C(C(CC)c2cccc(NS(=O)(=O)c3cn(C)cn3)c2)C(=O)O1 (centres unmarked) [Example 41, N-[3-[1-(4-hydroxy-2-oxo-6-phenethyl-6-propyl-5,6-dihydro-2H-pyran-3-yl)-propyl]-phenyl]-1-methyl-1H-imidazole-4-sulfonamide]								3.17	103	102	104	101	85.9	72.8	
CCCC1(CCc2ccccc2)CC(O)=C(C(CC)c2cccc(NS(=O)(=O)c3cccc4cccnc34)c2)C(=O)O1 (centres unmarked) [Example 42, N-[3-[1-(4-hydroxy-2-oxo-6-phenethyl-6-propyl-5,6-dihydro-2H-pyran-3-yl)-propyl]-phenyl]-8-quinolinesulfonamide]								3.1	86.2	103	98.3	102	91.4	76.1	
CCCC1(CCC)CC(O)=C(C(CC)c2cccc(NS(=O)(=O)c3cccc4cccnc34)c2)C(=O)O1 (centres unmarked) [Example 43, N-[3-[1-(4-hydroxy-2-oxo-6,6-dipropyl-5,6-dihydro-2H-pyran-3-yl)-propyl]-phenyl]-8-quinolinesulfonamide]	3.65 nM	85.6	99	95.7	96.7	102	85.6								
CCCC1(CCC)CC(O)=C(C(CC)c2cccc(NS(=O)(=O)c3cn(C)cn3)c2)C(=O)O1 (centres unmarked) [Example 44, N-[3-[1-(4-hydroxy-2-oxo-6,6-dipropyl-5,6-dihydro-2H-pyran-3-yl)-propyl]-phenyi]-1-methyl-1H-imidazolesulfonamide]	1.8 nM	98.4	114	120	113	102	80								
CCCC1(CCC)CC(O)=C(C(CC)c2cccc(NS(=O)(=O)c3ccc(F)cc3)c2)C(=O)O1 (centres unmarked) [Example 45, 4-Fluoro-N-[3-[1-(4-hydroxy-2-oxo-6,6-dipropyl-5,6-dihydro-2H-pyran-3-yl)-propyl]-phenyl]-benzenesulfonamide]	4.78 nM	82.2	94.4	101	103	89.8	67.5								
CCCC1(CCC)CC(O)=C(C(CC)c2cccc(NS(=O)(=O)c3ccc(C#N)cc3)c2)C(=O)O1 (centres unmarked) [Example 46, 4-Cyano-N-[3-[1-(4-hydroxy-2-oxo-6,6-dipropyl-5,6-dihydro-2H-pyran-3-yl)-propyl]-phenyl]-benzenesulfonamide]	2.92 nM	85.9	99.2	103	97.6	91.5	74.1								
CCC(C1=C(O)CC(CC(C)C)(CC(C)C)OC1=O)c1cccc(NS(=O)(=O)c2cn(C)cn2)c1 (centres unmarked) [Example 47, N-[3-[1-(4-hydroxy-6,6-diisobutyl-2-oxo-5,6-dihydro-2H-pyran-3-yl)-propyl]-phenyl]-1-methyl-1H-imidazole-4-sulfonamide]	3 nM and 2.98 nM	66.3		94.7	101	98.7	84.5								86.8
CCCC1(CCC)CC(O)=C(C(c2cccc(NS(=O)(=O)c3cn(C)cn3)c2)C2CC2)C(=O)O1 (centres unmarked) [Example 48]	0.52 nM	111	104	110	89.3	111	105								
CCCC1(CCC)CC(O)=C(C(c2cccc(NS(=O)(=O)c3cccc4cccnc34)c2)C2CC2)C(=O)O1 (centres unmarked) [Example 49]	0.96 nM	111	120	120	106	108	112								
CCCC1(CCC)CC(O)=C(C(c2cccc(NS(=O)(=O)c3ccc(C#N)cc3)c2)C2CC2)C(=O)O1 (centres unmarked) [Example 50]	1.78 nM	101	108	113	112	101	84.8								
CCCC1(CCC)CC(O)=C(C(c2cccc(NS(=O)(=O)c3ccc(F)cc3)c2)C2CC2)C(=O)O1 (centres unmarked) [Example 51, 4-Fluoro-N-[3-[1-(4-hydroxy-2-oxo-6,6-dipropyl-5,6-dihydro-2H-pyran-3-yl)-cyclopropylmethyl]-phenyl]-benzenesulfonamide]	2.66 nM	98.7	104	105	101	95.1	79.7								
CCCC1(CCc2ccccc2)CC(O)=C(C(c2cccc(NS(=O)(=O)c3ccc(C#N)cc3)c2)C2CC2)C(=O)O1 (centres unmarked) [Example 58]	3.8 nM	64.9	83.7	94.2	95.9	100	89.8								
CCCC1(CCc2ccccc2)CC(O)=C(C(c2cccc(NS(=O)(=O)c3ccc(F)cc3)c2)C2CC2)C(=O)O1 (centres unmarked) [Example 59]	3.5 nM	76.7	90.5	102	99.9	105	102								
CCCC1(CCc2ccccc2)CC(O)=C(C(c2cccc(NS(=O)(=O)c3cccc4cccnc34)c2)C2CC2)C(=O)O1 (centres unmarked) [Example 60, N-[3-[1-(4-Hydroxy-2-oxo-6-phenethyl-6-propyl-5,6-dihydro-2H-pyran-3-yl)-cyclopropylmethyl]-phenyl]-8-quinolinesulfonamide]	0.95 nM	73	94.3	101	101	106	107								
